Data as given in US20200068887A1, “TREATMENT FOR REMOVING ECTOPARASITES FROM FISH” (priority 2016, published 2020).
Where “and” joins values, the source holds several entries; their conditions need not be identical. Identical values can stand only once.

Columns and labels:
sea lice = experiment: Comparison on isolated sea lice (in vitro bath exposure); details: registered approx. 20 h after end of exposure
Description: Both pre-adult and adult stages (mobile stages) of both sexes were used, and they were equally distributed among groups. The sea lice were exposed to imidacloprid for 60 minutes, azamethiphos for 60 minutes and deltamethrin for 30 minutes in one litre baths at a range of concentrations (Tables 6, 7 and 8). The sea lice were transferred to clean aerated seawater after treatment. The temperature of the seawater during the experiment was 12° C., but during exposure the temperature raised to approx. 14° C. in regimes exposed for 60 min. (imidacloprid and azamethiphos) and to 13° C. for the regime exposed in 30 minutes (deltamethrin).
The numbers of live and immobilised (including killed) lice in each regime were registered approximately 20 h after end of exposure. Each louse was individually investigated.

salmon louse = experiment: Bath treatment of lice-infected Atlantic salmon, percent lice removed; type: in vivo; details: duplicate
Description: To determine the concentration- and time-dependence of imidacloprid treatment in vivo, Atlantic salmon (average of 320.9 g) were challenged with imidacloprid in seawater (32.5%0 salinity) at 12° C. The water level in the tank was lowered and aeration was employed during administration of the active. The salmon louse copepodid culture was counted and adjusted to obtain a target level of around 40 copepodids per fish in the challenge tank at each challenge time point.
Salmon lice on the fish were counted using standard methods. Only lice on the fish's outer surface, not including gills and oral/buccal cavities, were investigated.
Numbers of dissociated lice in tank water or attached to the tank walls were recorded. Lice in the tank water were collected and assessed for ability to attach by suction to a smooth plastic surface immediately after treatment and again after 30-60 minutes (to assess possible revival). Live and viable lice were also collected from the mock-treated control groups for reference and held in revival chambers for the same period of time to assess the system.
The test solutions of the active were prepared (added and homogenised with seawater) and administered to a treatment volume of 40 litres.
Three sea lice-infected fish from the holding tank were randomly gathered and carefully steered into a barrel forming an inner compartment (diameter=34.5-40 cm; height=54 cm) that was submerged in the tank and in which the base has been replaced with a plastic mesh screen with 9 mm^2 square holes.
The fish were transferred to the inner compartment within 3 minutes of each test start. The inner compartment was suspended/submerged in the holding tank pending treatment. Treatments and mock treatments were implemented by draining the inner compartment with fish and transferring it to a barrel containing the test solution. Treatments/mock treatments were performed in static water with aeration/oxygenation. Aeration was adjusted to set the oxygen saturation to 70-100%.
To terminate the treatment, the inner compartment with treated fish was lifted to the surface and drained, then fish were transferred directly and without water to a second basin with a lethal overdose of anaesthetic and left until dead. All lice remaining on these fish and lice that fell off in the anaesthetic bath were recorded.
Exposure times with imidacloprid ranged from 3 to 60 minutes, and doses ranged from 20 ppm to 200 ppm.
Negative control groups at 3- and 60 minutes were duplicated. Superscript numbers denote the total number of lice on the 3 fish in each test.
By way of comparison, fish infected with sea lice from the same sources were treated with azamethiphos at 0.1 mg/l and deltamethrin at 0.2 μ/l for 30 minutes, per the recommended dosage regimes. Treatments were carried out under similar conditions as those treated with imidacloprid. A mock-treatment control was also administered. Each treatment condition was administered in duplicate.
Superscript numbers denote the total number of lice on the 3 fish in each test.

[1] = azamethiphos 5 ppm, 60 min exposure
[2] = azamethiphos 10 ppm, 60 min exposure
[3] = azamethiphos 15 ppm, 60 min exposure
[4] = azamethiphos 20 ppm, 60 min exposure
[5] = deltamethrin 5 ppm, 30 min exposure
[6] = deltamethrin 15 ppm, 30 min exposure
[7] = deltamethrin 20 ppm, 30 min exposure
[8] = deltamethrin 30 ppm, 30 min exposure

COP(=O)(OC)SCn1c(=O)oc2cc(Cl)cnc21 [azamethiphos]
% effect (sea lice; [1]): 0%
Immobilised (sea lice; [1]): 0
Live (sea lice; [1]): 10
% effect (sea lice; [2]): 10%
Immobilised (sea lice; [2]): 1
Live (sea lice; [2]): 9
% effect (sea lice; [3]): 0%
Immobilised (sea lice; [3]): 0
Live (sea lice; [3]): 10
% effect (sea lice; [4]): 10% and 20%
Immobilised (sea lice; [4]): 1 and 2
Live (sea lice; [4]): 9 and 8
Live (sea lice; azamethiphos 30 ppm, 60 min exposure): 9 and 6
% Removal (salmon louse; azamethiphos at 0.1 mg/l for 30 minutes, 52 and 33 lice on 3 fish): 3.0^33% and 3.8^52%

CC1(C)[C@H](C(=O)O[C@H](C#N)c2cccc(Oc3ccccc3)c2)[C@@H]1C=C(Br)Br [deltamethrin]
% effect (sea lice; [5]): 0%
Immobilised (sea lice; [5]): 0
Live (sea lice; [5]): 10
Live (sea lice; deltamethrin 10 ppm, 30 min exposure): 9 and 10
% effect (sea lice; [6]): 20% and 10%
Immobilised (sea lice; [6]): 2 and 1
Live (sea lice; [6]): 8 and 9
% effect (sea lice; [7]): 20% and 10%
Immobilised (sea lice; [7]): 2 and 1
Live (sea lice; [7]): 8 and 9
Immobilised (sea lice; [8]): 1 and 2
Live (sea lice; [8]): 10 and 8
% Removal (salmon louse; deltamethrin at 0.2 μ/l for 30 minutes, 37 lice on 3 fish each): 0^37%
